In ChEMBL document CHEMBL3758091, “Identification of N-(6-mercaptohexyl)-3-(4-pyridyl)-1H-pyrazole-5-carboxamide and its disulfide prodrug as potent histone deacetylase inhibitors with in vitro and in vivo anti-tumor efficacy” (Eur J Med Chem, 2016):

Key:
[1] = cells; format: functional; settings: Homo sapiens, HCT-116, 96 h
Description: Growth inhibition of human HCT116 cells after 96 hrs by MTT assay

[2] = biological target: T1, Histone deacetylase 11 (Homo sapiens, UniProt Q96DB2); experiment: Inhibition of recombinant human HDAC11 using Boc-Lys(TFA)-AMC as substrate preincubated for 15 mins followed by substrate addition measured after 60 mins by fluorescence-based assay
T1 sequence (Q96DB2 whole entry): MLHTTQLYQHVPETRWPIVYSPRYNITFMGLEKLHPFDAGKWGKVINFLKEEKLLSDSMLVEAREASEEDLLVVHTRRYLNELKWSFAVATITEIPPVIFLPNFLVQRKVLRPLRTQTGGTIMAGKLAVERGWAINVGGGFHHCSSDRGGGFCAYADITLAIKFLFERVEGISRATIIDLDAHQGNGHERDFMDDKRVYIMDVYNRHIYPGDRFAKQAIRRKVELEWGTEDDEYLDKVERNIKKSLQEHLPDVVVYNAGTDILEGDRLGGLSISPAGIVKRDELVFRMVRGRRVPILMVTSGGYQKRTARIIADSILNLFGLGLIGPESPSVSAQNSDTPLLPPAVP

[3] = biological target: T2, Histone deacetylase 8 (Homo sapiens, UniProt Q9BY41); experiment: Inhibition of recombinant human HDAC8 using Boc-Lys(TFA)-AMC as substrate preincubated for 15 mins followed by substrate addition measured after 60 mins by fluorescence-based assay
T2 sequence (Q9BY41 whole entry): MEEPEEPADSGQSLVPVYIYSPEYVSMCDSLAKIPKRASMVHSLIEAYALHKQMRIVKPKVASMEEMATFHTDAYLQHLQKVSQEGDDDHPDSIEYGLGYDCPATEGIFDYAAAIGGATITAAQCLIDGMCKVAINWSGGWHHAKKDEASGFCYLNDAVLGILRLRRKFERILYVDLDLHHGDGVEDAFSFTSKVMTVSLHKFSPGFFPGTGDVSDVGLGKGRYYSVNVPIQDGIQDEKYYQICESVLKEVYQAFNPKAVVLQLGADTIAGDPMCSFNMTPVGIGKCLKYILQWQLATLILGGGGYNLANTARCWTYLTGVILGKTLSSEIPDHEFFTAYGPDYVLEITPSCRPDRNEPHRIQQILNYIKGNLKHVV

[4] = biological target: T3, Protein deacetylase HDAC6 (Homo sapiens, UniProt Q9UBN7); experiment: Inhibition of recombinant human HDAC6 using Boc-Lys(Ac)-AMC as substrate preincubated for 15 mins followed by substrate addition measured after 60 mins by fluorescence-based assay
T3 sequence (Q9UBN7 whole entry): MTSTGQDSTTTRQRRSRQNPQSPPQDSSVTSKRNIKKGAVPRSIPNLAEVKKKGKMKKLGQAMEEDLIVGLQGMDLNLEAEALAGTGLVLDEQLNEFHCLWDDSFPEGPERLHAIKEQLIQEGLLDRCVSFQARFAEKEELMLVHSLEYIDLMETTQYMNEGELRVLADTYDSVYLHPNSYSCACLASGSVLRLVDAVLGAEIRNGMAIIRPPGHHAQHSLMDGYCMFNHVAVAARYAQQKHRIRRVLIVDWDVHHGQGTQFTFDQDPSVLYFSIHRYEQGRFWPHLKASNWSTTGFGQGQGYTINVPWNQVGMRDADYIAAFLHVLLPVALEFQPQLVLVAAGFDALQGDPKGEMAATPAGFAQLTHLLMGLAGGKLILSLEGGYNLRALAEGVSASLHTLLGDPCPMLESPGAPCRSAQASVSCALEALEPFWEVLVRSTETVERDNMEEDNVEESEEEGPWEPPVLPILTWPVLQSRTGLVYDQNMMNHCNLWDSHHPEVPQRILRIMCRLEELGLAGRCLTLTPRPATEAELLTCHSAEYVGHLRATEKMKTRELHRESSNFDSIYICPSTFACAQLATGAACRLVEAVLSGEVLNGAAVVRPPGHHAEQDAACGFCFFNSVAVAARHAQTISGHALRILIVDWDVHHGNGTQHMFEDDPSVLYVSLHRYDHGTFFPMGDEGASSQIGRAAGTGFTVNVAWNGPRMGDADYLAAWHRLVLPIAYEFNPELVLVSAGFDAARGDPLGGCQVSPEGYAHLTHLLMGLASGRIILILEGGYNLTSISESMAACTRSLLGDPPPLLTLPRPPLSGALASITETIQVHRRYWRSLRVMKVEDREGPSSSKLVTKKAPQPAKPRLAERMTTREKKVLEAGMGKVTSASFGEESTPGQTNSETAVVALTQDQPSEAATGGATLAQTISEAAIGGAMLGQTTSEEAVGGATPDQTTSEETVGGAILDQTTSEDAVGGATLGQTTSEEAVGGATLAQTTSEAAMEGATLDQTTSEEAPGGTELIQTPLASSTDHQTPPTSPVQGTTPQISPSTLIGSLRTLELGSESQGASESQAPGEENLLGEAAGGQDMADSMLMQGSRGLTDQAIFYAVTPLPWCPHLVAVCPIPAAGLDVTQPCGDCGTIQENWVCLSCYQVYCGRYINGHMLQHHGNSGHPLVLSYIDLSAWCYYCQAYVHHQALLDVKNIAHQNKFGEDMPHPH

[5] = biological target: Histone deacetylase 2 (Homo sapiens, UniProt Q92769); experiment: Inhibition of recombinant human HDAC2 using Boc-Lys(Ac)-AMC as substrate preincubated for 15 mins followed by substrate addition measured after 60 mins by fluorescence-based assay
[6] = biological target: T4, Histone deacetylase 1 (Homo sapiens, UniProt Q13547); experiment: Inhibition of recombinant human HDAC1 using Boc-Lys(Ac)-AMC as substrate preincubated for 15 mins followed by substrate addition measured after 60 mins by fluorescence-based assay
[7] = biological target: Histone deacetylase 4 (Homo sapiens, UniProt P56524); experiment: Inhibition of recombinant human HDAC4 using Boc-Lys(TFA)-AMC as substrate preincubated for 15 mins followed by substrate addition measured after 60 mins by fluorescence-based assay
[8] = biological target: Histone deacetylase 3 (Homo sapiens, UniProt O15379); experiment: Inhibition of recombinant human HDAC3 using Boc-Lys(Ac)-AMC as substrate preincubated for 15 mins followed by substrate addition measured after 60 mins by fluorescence-based assay
[9] = biological target: Histone deacetylase; experiment: Inhibition of HDAC in human HeLa cell nuclear extract using Boc-Lys(Ac)-AMC as substrate preincubated for 15 mins followed by substrate addition measured after 60 mins by fluorescence-based assay
[10] = test system: MCF7; experiment: cells; format: functional; settings: Homo sapiens, MCF7, 96 h
Description: Growth inhibition of human MCF7 cells after 96 hrs by MTT assay

[11] = test system: MDA-MB-231; experiment: cells; format: functional; settings: Homo sapiens, MDA-MB-231, 96 h
Description: Growth inhibition of human MDA-MB-231 cells after 96 hrs by MTT assay

[12] = test system: A549; experiment: cells; format: functional; settings: Homo sapiens, A549, 96 h
Description: Growth inhibition of human A549 cells after 96 hrs by MTT assay

[13] = test system: HT-29; experiment: Growth inhibition of human HT-29 cells after 96 hrs by MTT assay; format: functional; settings: Homo sapiens, HT-29, 96 h
[14] = Cytotoxicity against HEK293 cells assessed as growth inhibition after 96 hrs by MTT assay; settings: human
[15] = cells; format: functional; settings: Homo sapiens, ASPC1, 96 h
Description: Growth inhibition of human Aspc-1 cells after 96 hrs by MTT assay

[16] = cells; format: functional; settings: Homo sapiens, PC-3, 96 h
Description: Growth inhibition of human PC3 cells after 96 hrs by MTT assay

[17] = biological target: T4, Histone deacetylase 1; experiment: Inhibition of HDAC1 in human HCT116 cells assessed as increase in acetylated histone H3 level after 24 hrs by Western blot analysis; format: cell-based; settings: HCT-116
[18] = biological target: T5, Protein deacetylase HDAC6 (Homo sapiens) (UniProt Q9UBN7); experiment: Inhibition of HDAC6 in human HCT116 cells assessed as increase in acetylated tubulin level after 24 hrs by Western blot analysis; format: cell-based; settings: HCT-116
T5 sequence (whole entry): T3 sequence (Q9UBN7 whole entry)

T4 sequence (Q13547 whole entry): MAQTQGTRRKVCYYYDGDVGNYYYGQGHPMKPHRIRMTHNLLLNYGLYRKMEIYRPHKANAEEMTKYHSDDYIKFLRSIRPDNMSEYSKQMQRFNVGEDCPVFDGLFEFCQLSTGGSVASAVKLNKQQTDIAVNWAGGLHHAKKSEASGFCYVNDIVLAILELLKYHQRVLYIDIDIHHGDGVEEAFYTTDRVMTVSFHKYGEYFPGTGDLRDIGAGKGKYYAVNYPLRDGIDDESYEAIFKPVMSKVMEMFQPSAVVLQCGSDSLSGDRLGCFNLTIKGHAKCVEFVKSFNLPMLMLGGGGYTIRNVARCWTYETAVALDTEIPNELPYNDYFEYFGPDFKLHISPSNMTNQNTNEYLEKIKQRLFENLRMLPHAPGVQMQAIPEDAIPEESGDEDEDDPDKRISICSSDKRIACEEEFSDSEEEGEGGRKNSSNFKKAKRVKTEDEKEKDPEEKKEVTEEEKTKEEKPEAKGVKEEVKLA
Chain of Histone deacetylase 2 (Q92769 whole entry): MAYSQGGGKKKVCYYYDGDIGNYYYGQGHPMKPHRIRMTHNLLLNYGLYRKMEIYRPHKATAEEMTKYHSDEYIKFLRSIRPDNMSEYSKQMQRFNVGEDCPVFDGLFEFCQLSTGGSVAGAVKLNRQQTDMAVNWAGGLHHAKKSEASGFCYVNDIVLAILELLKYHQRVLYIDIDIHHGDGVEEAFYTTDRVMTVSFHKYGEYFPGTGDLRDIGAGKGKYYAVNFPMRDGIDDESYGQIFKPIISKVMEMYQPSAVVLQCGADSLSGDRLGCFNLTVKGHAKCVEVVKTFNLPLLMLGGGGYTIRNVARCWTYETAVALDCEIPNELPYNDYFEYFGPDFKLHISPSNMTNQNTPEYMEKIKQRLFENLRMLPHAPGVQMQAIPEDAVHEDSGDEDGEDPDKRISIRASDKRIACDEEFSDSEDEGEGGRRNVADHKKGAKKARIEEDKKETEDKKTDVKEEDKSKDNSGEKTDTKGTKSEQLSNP
Chain of Histone deacetylase 3 (O15379 whole entry): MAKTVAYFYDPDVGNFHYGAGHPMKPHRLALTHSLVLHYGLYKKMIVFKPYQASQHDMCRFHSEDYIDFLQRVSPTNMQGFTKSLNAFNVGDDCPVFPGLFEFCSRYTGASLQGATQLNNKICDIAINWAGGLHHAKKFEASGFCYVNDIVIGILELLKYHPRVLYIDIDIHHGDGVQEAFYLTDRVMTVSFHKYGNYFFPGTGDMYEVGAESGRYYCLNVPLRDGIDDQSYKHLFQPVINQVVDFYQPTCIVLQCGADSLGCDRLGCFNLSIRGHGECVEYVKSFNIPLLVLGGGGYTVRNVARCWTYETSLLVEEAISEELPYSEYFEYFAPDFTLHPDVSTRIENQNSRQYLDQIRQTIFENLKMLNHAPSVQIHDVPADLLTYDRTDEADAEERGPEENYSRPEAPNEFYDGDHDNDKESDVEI
Chain of Histone deacetylase 4 (P56524 whole entry): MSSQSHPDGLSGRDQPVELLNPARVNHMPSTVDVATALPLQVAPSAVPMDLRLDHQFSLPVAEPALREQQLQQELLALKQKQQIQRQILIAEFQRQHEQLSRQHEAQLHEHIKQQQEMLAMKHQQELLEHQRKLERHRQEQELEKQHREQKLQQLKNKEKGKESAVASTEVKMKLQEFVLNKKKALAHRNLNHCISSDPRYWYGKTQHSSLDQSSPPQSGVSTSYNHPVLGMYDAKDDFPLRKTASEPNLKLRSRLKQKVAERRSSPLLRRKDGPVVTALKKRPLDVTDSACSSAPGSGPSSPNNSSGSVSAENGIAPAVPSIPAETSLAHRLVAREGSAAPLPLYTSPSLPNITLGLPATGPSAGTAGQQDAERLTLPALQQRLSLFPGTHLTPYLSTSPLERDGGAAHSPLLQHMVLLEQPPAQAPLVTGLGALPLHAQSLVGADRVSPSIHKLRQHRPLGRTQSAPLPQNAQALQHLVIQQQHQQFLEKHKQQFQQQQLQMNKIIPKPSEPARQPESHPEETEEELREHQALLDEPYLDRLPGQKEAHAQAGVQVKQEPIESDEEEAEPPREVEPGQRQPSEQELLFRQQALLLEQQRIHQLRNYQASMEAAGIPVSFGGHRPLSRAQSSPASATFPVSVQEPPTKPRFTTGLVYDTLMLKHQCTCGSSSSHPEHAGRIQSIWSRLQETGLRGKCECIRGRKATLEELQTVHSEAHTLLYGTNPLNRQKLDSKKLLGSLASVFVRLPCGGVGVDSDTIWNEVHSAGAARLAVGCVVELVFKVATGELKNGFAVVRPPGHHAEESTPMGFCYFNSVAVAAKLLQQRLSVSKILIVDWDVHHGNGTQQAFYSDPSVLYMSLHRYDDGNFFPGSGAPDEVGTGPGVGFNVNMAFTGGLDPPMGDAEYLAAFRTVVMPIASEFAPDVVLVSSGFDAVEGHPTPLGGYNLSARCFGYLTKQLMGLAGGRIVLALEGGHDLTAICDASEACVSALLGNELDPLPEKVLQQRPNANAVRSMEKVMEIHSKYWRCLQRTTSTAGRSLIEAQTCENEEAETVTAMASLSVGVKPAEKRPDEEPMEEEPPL

Compound `O=C(NCCCCCCS)c1cc(-c2cnccn2)n[nH]1` has a GI50 [1] greater than 50 µM, an IC50 [2] greater than 10 µM and an IC50 [3] greater than 10 µM. It also gave an IC50 [4] of 0.022 µM, an IC50 [5] of 0.068 µM and an IC50 [6] of 0.015 µM. It also gave an IC50 [7] greater than 10 µM, an IC50 [8] of 0.023 µM and an IC50 [9] of 0.018 µM. For the same compound, the GI50 [10] was greater than 50 µM.
`O=C(NCCCCCCS)c1cc(-c2ccc(F)cc2)n[nH]1` gave a GI50 [1] greater than 50 µM, an IC50 [9] of 0.245 µM and a GI50 [10] greater than 50 µM.
For `CC(=O)SCCCCCCNC(=O)c1cc(-c2ccncc2)n[nH]1`, the GI50 [1] was 41.1 µM, the GI50 [11] was greater than 50 µM and the GI50 [12] was 18 µM. It also gave a GI50 [13] of 23.1 µM, a GI50 at 96 h [14] greater than 50 µM and a GI50 [15] greater than 50 µM. It also gave a GI50 [16] of 36 µM and a GI50 [10] of 24.9 µM.
`CCCC(=O)SCCCCCCNC(=O)c1cc(-c2ccncc2)n[nH]1` showed a GI50 [1] of 23.5 µM, a GI50 [11] greater than 50 µM and a GI50 [12] of 15.1 µM. It also gave a GI50 [13] of 12.4 µM, a GI50 at 96 h [14] greater than 50 µM and a GI50 [15] of 28.1 µM. It also gave a GI50 [16] of 32.1 µM and a GI50 [10] of 12.1 µM.
Work on `COc1ccc(-c2cc(C(=O)NCCCCCCS)[nH]n2)cc1` yielded a GI50 [1] greater than 50 µM, an IC50 [4] of 0.167 µM and an IC50 [9] of 0.15 µM. For the same compound, the GI50 [10] was 14.8 µM.
Compound `COc1cc(-c2cc(C(=O)NCCCCCCS)[nH]n2)cc(OC)c1OC` has a GI50 [1] greater than 50 µM, an IC50 [4] of 0.084 µM and an IC50 [6] of 0.422 µM. For the same compound, the IC50 [9] was 0.102 µM and the GI50 [10] was greater than 50 µM.
`O=C(NCCCCCCS)c1cc(-c2cccc3ccccc23)n[nH]1` gave a GI50 [1] greater than 50 µM, an IC50 [4] of 0.244 µM and an IC50 [6] of 0.429 µM. For the same compound, the IC50 [9] was 0.608 µM and the GI50 [10] was greater than 50 µM.
For `O=C(NCCCCCCS)c1cc(-c2ccccn2)n[nH]1`, the GI50 [1] was greater than 50 µM, the IC50 [4] was 0.027 µM and the IC50 [6] was 0.124 µM. The IC50 [9] was 0.033 µM and the GI50 [10] was 26.8 µM.
Compound `COc1ccc(-c2cc(C(=O)NCCCCCCS)[nH]n2)cc1OC` has a GI50 [1] greater than 50 µM, an IC50 [4] of 0.056 µM and an IC50 [6] of 0.31 µM. It also gave an IC50 [9] of 0.056 µM and a GI50 [10] of 30.8 µM.
For `O=C(CCCCCCS)Nc1ccccc1`, the GI50 [1] was greater than 50 µM and the GI50 [10] was greater than 50 µM.
In the case of `O=C(NCCCCCCS)c1cc(-c2cccnc2)n[nH]1`, the GI50 [1] is reported as 18.1 µM, the inhibition [17] is reported as “Dose-dependent effect” and the GI50 [11] is reported as 42.4 µM. It also gave an IC50 [2] greater than 10 µM, an IC50 [3] greater than 10 µM and a GI50 [12] of 19.3 µM. It also gave a GI50 [13] of 22 µM, an IC50 [4] of 0.026 µM and a GI50 at 96 h [14] greater than 50 µM. For the same compound, the IC50 [5] was 0.221 µM, the GI50 [15] was 14.6 µM and the IC50 [6] was 0.052 µM. For the same compound, the IC50 [7] was greater than 10 µM, the GI50 [16] was 9.4 µM and the IC50 [8] was 0.029 µM. For the same compound, the IC50 [9] was 0.015 µM, the GI50 [10] was 11.5 µM and the inhibition [18] was “Dose-dependent effect”.
Work on `CCCCCCCC/C=C\CCCCCCCC(=O)SCCCCCCNC(=O)c1cc(-c2ccncc2)n[nH]1` yielded a GI50 [1] of 39.3 µM, a GI50 [11] greater than 50 µM and a GI50 [12] of 33.3 µM. The GI50 [13] was 23.5 µM, the GI50 at 96 h [14] was greater than 50 µM and the GI50 [15] was greater than 50 µM. For the same compound, the GI50 [16] was greater than 50 µM and the GI50 [10] was 31.1 µM.
